Experimental data: the supplement of paper PMC10307832

Tests used:
Experiment in all cases: relative viability (nuclei count vs DMSO), 5 days (fraction); higher = more cells survive
TPCA-1 = compound: C1=CC(=CC=C1C2=CC(=C(S2)NC(=O)N)C(=O)N)F [TPCA-1]
Procedure, shortened: (§1)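 Vehicle-anchored 1536-well plates of lung cancer cell lines, held overnight at 37 °C, were pinned with five library-drug doses (not always all listed) spaced by √10. No medium change followed over the next 5 days, after which the cells were fixed, permeabilised and Hoechst-stained together and imaged at 4×. Nuclei were counted with MetaXpress, and viability is treated-well nuclei over vehicle-well nuclei, taken as a median across plates. Plates passed with control CV below 25% and at least one doubling.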

[1] = compound: C1/C(=C\C2=CC=CS2)/C(=O)/C(=C/C3=CC=CS3)/C1
Procedure, shortened: as §1

Lestaurtinib = compound: C[C@]12O[C@H](C[C@]1(O)CO)n1c3ccccc3c3c4c(c5c6ccccc6n2c5c31)CNC4=O [Lestaurtinib]
Procedure, shortened: as §1

[2] = compound: C1/C(=C\C2=CC=CS2)/C(=O)/C(=C/C3=CC=CS3)/C1 + COc1cc2c(Oc3ccc(NC(=O)C4(C(=O)Nc5ccc(F)cc5)CC4)cc3F)ccnc2cc1OCCCN1CCOCC1 [Foretinib] (partner 0.25 µM)
Procedure, shortened: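 A single step with final 0.05% Triton X-100, 1% formaldehyde and 1 ug/ml Hoechst fixed the cells and stained nuclei 5 days after treatment. Lung cancer cell lines in 1536-well plates had been treated by pin tool the day after seeding with one drug alone or a fixed anchor-drug dose plus five library-drug doses (not always all listed) in √10 steps, and nuclei were counted on 4× images. Relative viability is the ratio of nuclei in treated wells to nuclei in vehicle wells, taken as the median of duplicate plates.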

| Cell Line | relative viability (TPCA-1; 0.04 µM) | relative viability (TPCA-1; 0.1265 µM) | relative viability (TPCA-1; 0.4 µM) | relative viability (TPCA-1; 1.265 µM) | relative viability (TPCA-1; 4 µM) | relative viability ([1]; 0.2 µM) | relative viability ([1]; 0.6325 µM) | relative viability ([1]; 2 µM) | relative viability ([1]; 6.325 µM) | relative viability ([1]; 20 µM) | relative viability (Lestaurtinib; 0.005 µM) | relative viability (Lestaurtinib; 0.01581 µM) | relative viability (Lestaurtinib; 0.05 µM) | relative viability (Lestaurtinib; 0.1581 µM) | relative viability (Lestaurtinib; 0.5 µM) | relative viability ([2]; first compound 0.2 µM) | relative viability ([2]; first compound 0.6325 µM) | relative viability ([2]; first compound 2 µM) | relative viability ([2]; first compound 6.325 µM) | relative viability ([2]; first compound 20 µM) |
| --- | --- | --- | --- | --- | --- | --- | --- | --- | --- | --- | --- | --- | --- | --- | --- | --- | --- | --- | --- | --- |
| NCI-H2342 | 1 | 0.961 | 1.05 | 0.956 | 0.919 | 1.01 | 0.951 | 1.06 | 0.829 | 0.954 | 0.947 | 1.04 | 0.863 | 1.09 | 1.03 | 1.08 | 1.28 | 1.17 | 0.989 | 1.1 |
| NCI-H1623 | 1.13 | 0.879 | 0.962 | 1.01 | 0.763 | 0.977 | 0.865 | 1.1 | 0.903 | 0.911 | 0.978 | 0.962 | 0.931 | 0.884 | 0.813 | 0.863 | 0.907 | 0.871 | 0.786 | 0.821 |
| SK-LU-1 | 1.13 | 0.9 | 1.07 | 0.836 | 0.632 | 1.12 | 1.09 | 1.07 | 0.91 | 1.1 | 1.07 | 0.883 | 0.531 | 0.563 | 0.263 | 0.846 | 0.85 | 0.937 | 0.795 | 0.831 |
| NCI-H2085 | 0.989 | 0.989 | 0.988 | 0.897 | 0.875 | 1.08 | 1.01 | 1.01 | 0.898 | 0.961 | 0.989 | 0.99 | 0.996 | 1.01 | 0.786 | 1.09 | 1.05 | 0.984 | 0.927 | 0.883 |
| NCI-H460 | 1.03 | 0.984 | 1.01 | 1.04 | 0.889 | 1.05 | 1.01 | 1.05 | 0.823 | 0.971 | 1.08 | 1.09 | 1.04 | 1.08 | 0.836 | 1.02 | 1.06 | 1.02 | 0.881 | 0.99 |
| Calu-6 | 1.06 | 0.95 | 0.982 | 1 | 0.72 | 1.06 | 1.05 | 0.993 | 0.944 | 0.985 | 1.05 | 0.999 | 0.621 | 0.518 | 0.204 | 0.833 | 0.945 | 0.895 | 0.759 | 0.82 |
| RERF-LC-KJ | 1.02 | 0.895 | 0.982 | 0.93 | 0.826 | 0.984 | 1.04 | 1.02 | 0.878 | 0.927 | 1.03 | 1.09 | 0.847 | 0.827 | 0.558 | 0.932 | 0.929 | 0.866 | 0.985 | 0.808 |
| LCLC-103H | 1.1 | 0.933 | 1.06 | 0.941 | 1.02 | 1.04 | 1.02 | 1.09 | 0.87 | 0.986 | 1.1 | 1.08 | 0.937 | 0.693 | 0.519 | 0.804 | 0.8 | 0.787 | 0.668 | 0.732 |
| HCC-15 | 1.14 | 0.926 | 1.04 | 0.887 | 0.55 | 1.04 | 1.04 | 1.03 | 0.87 | 0.977 | 1.08 | 1.18 | 0.873 | 0.824 | 0.183 | 1.09 | 0.994 | 1.03 | 0.917 | 1.06 |
| H3255 | 1.08 | 0.898 | 0.916 | 0.816 | 0.783 | 1.03 | 1.04 | 0.977 | 0.899 | 0.972 | 1.03 | 1.08 | 0.935 | 0.744 | 0.511 | 0.847 | 1.09 | 1.1 | 0.819 | 0.83 |
| NCI-H1792 | 1.22 | 0.894 | 0.914 | 0.568 | 0.42 | 1.03 | 1.02 | 1.09 | 0.854 | 0.955 | 0.744 | 1.36 | 0.504 | 0.63 | 0.433 | – | – | – | – | – |
| NCI-H1563 | 0.886 | 0.964 | 0.971 | 0.941 | 0.956 | 1.01 | 0.876 | 1.03 | 0.936 | 0.998 | 1.06 | 1.02 | 0.913 | 0.972 | 0.72 | 0.952 | 1.1 | 0.968 | 0.895 | 0.93 |
| NCI-H596 | 1.09 | 0.978 | 1.05 | 1.17 | 0.842 | 1 | 0.994 | 1.11 | 0.85 | 0.964 | 1.02 | 0.889 | 0.872 | 1.06 | 1.02 | 0.895 | 0.847 | 0.872 | 0.753 | 0.905 |
| NCI-H2087 | 1.18 | 0.966 | 0.982 | 0.915 | 0.542 | 1.13 | 0.872 | 1.2 | 0.783 | 1.01 | 1.03 | 0.951 | 0.816 | 0.834 | 0.367 | 1.26 | 1.28 | 1.15 | 1.17 | 1.13 |
| NCI-H522 | 0.928 | 0.916 | 1.18 | 1.07 | 0.844 | 1.12 | 0.967 | 1.06 | 0.978 | 0.922 | 1.03 | 0.963 | 0.877 | 0.877 | 0.604 | – | – | – | – | – |
| HCC-44 | 1.01 | 0.933 | 0.965 | 0.643 | 0.901 | 1.02 | 1 | 0.989 | 0.898 | 0.962 | 0.923 | 1.16 | 0.941 | 1.11 | 0.845 | – | – | – | – | – |
| NCI-H1648 | 1.1 | 0.788 | 1.03 | 0.824 | 0.993 | 0.934 | 0.875 | 0.876 | 0.728 | 0.739 | 0.688 | 0.993 | 0.691 | 1.17 | 0.879 | – | – | – | – | – |
